Experimental data as given in US11191744B2, “Pharmaceutical active ingredient and use thereof, in particular for the prevention and treatment of metabolic disorders in humans and animals” (VALBIOTIS, priority 2017, dated 2021).
Where “and” joins values, the source holds several entries; their conditions need not be identical. Equal values may be shown once.

How the values were obtained:
Assay type in all cases: in vivo
db/db mice [1] = test: Fasting insulinemia in db/db mice after 6 weeks of treatment; conditions: for median insulinemia compared with CONTROL (in words): db/db mice, after 6 weeks of treatment; for Median values of insulinemia after 6 weeks of treatment: male db/db mice, fasted 6 h, compositions in the diet
Description: (§1) The composition was also compared to metformin, one of the main pharmaceutical molecules prescribed for the treatment of type 2 diabetes.
(§2) Experiments were performed on db/db mice, a model mimicking the characteristics of type 2 diabetes in humans (Roesler W J et al., Mol Cell Biochem 1990; 92(2):99-106). These mice are insulin-resistant, hypertriglyceridemic, and glucose intolerant. They very quickly develop pre-diabetes, a type 2 diabetes and then NASH.
FIG. 1 illustrates the evolution of insulinemia and glycemia (glucose) over time in this model (Joost H G et al., Animal Models in Diabetes Research, Humana Press). As for humans, the rise in glycemia is initially accompanied by an increase in insulinemia (associated with insulin resistance), evidence of a pancreas still able to secrete insulin, then a decrease, reflecting functional degeneration of the pancreas, and thus progression of type 2 diabetes with the need for insulin therapy (Kobayashi K et al., Metabolism: Clinical and experimental 2,000; 49:22-31 Tao H et al Nat Med 2014; 20(11):1263-1269).
(§3) The experimental time for the trial was […] with a 1 week run-in followed by 6 weeks of treatment. The male mice were 6 weeks old at the start of treatment. The (1S,3R,4R,5R)-3-{[(2E)-3-(3,4-dihydroxyphenyl)-2-propenoyl]oxy}-1,4,5-trihydroxycyclohexanecarboxylic acid alone, the methyl (2S,3E,4S)-4-{2-[2-(3,4-dihydroxyphenyl)ethoxy]-2-oxoethyl}-3-ethylidene-2-(β-D-glucopyranosyloxy)-3,4-dihydro-2H-pyran-5-carboxylate alone, and the mixture of these two molecules in a ratio of 1/4.65 have been tested and compared with metformin. These compositions were directly integrated into the diet of rodents, thus ensuring large-scale use, with injections, for example, intravenous, being limited to a small number given their mode of administration.
(§4) After randomization by weight and fasting glycemia, the animals were divided into the following groups: • Control (n=15): CONTROL; • Metformin (n=12, 0.2% of the diet): MET; • (1S,3R,4R,5R)-3-{[(2E)-3-(3,4-dihydroxyphenyl)-2-propenoyl]oxy}-1,4,5-trihydroxycyclohexanecarboxylic acid (n=12, 0.026% of the diet): V63X35; • The methyl (2S,3E,4S)-4-{2-[2-(3,4-dihydroxyphenyl)ethoxy]-2-oxoethyl}-3-ethylidene-2-(β-D-glucopyranosyloxy)-3,4-dihydro-2H-pyran-5-carboxylate (n=11, 0.12% of diet): V63X54; • The (1S,3R,4R,5R)-3-{[(2E)-3-(3,4-dihydroxyphenyl)-2-propenoyl]oxy}-1,4,5-trihydroxycyclohexanecarboxylic acid+methyl (2S,3E,4S)-4-{2-[2-(3,4-dihydroxyphenyl)ethoxy]-2-oxoethyl}-3-ethylidene-2-(β-D-glucopyranosyloxy)-3,4-dihydro-2H-pyran-5-carboxylate (n=11, respectively 0.026% and 0.12% of the feed): V63,000.
(§5) Experimental evaluations performed on an empty stomach (6 h) after 6 weeks of treatment were in particular concerned with: • The measurement of weight; • Measuring glycemia; • Measuring of insulinemia; • Measuring of serum triglycerides.

db/db mice [2] = test: Fasting glycemia in db/db mice after 6 weeks of treatment; conditions: for effect on fasting glycemia (in words): db/db mice, after 6 weeks of treatment, versus CONTROL; for Fasting glycemia after 6 weeks of treatment: male db/db mice, fasted 6 h, compositions in the diet, mean values ± SEM
Description: as §1, §2, §3, §4, §5
The synergistic effect on fasting glycemia was evaluated according to the Colby SR method described in “Calculation of the synergistic and antagonistic responses of herbicide combinations” Weeds, 1967, 15:20-22. A factor>1 indicates the existence of a synergistic effect. A factor<1 indicates the existence of an antagonist.
V63X54 represents the percent change in glycemia for the V63X54 group compared to the CONTROL group.

db/db mice [3] = test: Fasting serum triglycerides in db/db mice after 6 weeks of treatment
Description: as §1, §2
as §3, with “administration. […]” for “administration.”

C/C=C1/[C@H](O[C@@H]2O[C@H](CO)[C@@H](O)[C@H](O)[C@H]2O)OC=C(C(=O)OC)[C@H]1CC(=O)OCCc1ccc(O)c(O)c1 [V63X54, methyl (2S,3E,4S)-4-{2-[2-(3,4-dihydroxyphenyl)ethoxy]-2-oxoethyl}-3-ethylidene-2-(β-D-glucopyranosyloxy)-3,4-dihydro-2H-pyran-5-carboxylate]
median insulinemia compared with CONTROL (in words) (db/db mice [1]): no difference
Median values of insulinemia after 6 weeks of treatment (db/db mice [1]): 25.44 ng/mL
effect on fasting glycemia (in words) (db/db mice [2]): no effect
Fasting glycemia after 6 weeks of treatment (db/db mice [2]): 432 ± 27 mg/dL

O=C(/C=C/c1ccc(O)c(O)c1)O[C@@H]1C[C@](O)(C(=O)O)C[C@@H](O)[C@H]1O [V63X35, (1S,3R,4R,5R)-3-{[(2E)-3-(3,4-dihydroxyphenyl)-2-propenoyl]oxy}-1,4,5-trihydroxycyclohexanecarboxylic acid]
median insulinemia compared with CONTROL (in words) (db/db mice [1]): no difference
Median values of insulinemia after 6 weeks of treatment (db/db mice [1]): 22.39 ng/mL
effect on fasting glycemia (in words) (db/db mice [2]): no effect
Fasting glycemia after 6 weeks of treatment (db/db mice [2]): 454 ± 34 mg/dL

CN(C)C(=N)N=C(N)N [MET, metformin, reference compound]
Median values of insulinemia after 6 weeks of treatment (db/db mice [1]): 21.89 ng/mL
reduction of blood triglyceride levels (db/db mice [3]; db/db mice, after 6 weeks of treatment, versus CONTROL): 35.6%
Serum triglycerides after 6 weeks of treatment (db/db mice [3]; male db/db mice, fasted 6 h, compositions in the diet, mean values ± SEM): 132.6 ± 7.4 mg/dL
effect on fasting glycemia (in words) (db/db mice [2]): no effect
Fasting glycemia after 6 weeks of treatment (db/db mice [2]): 454 mg/dL and 454 ± 34 mg/dL
